The target in test [1] is EZH2 (Homo sapiens (Human), UniProt Q15910). In words: ELISA (H3K27 methylation) assay in G401 cell. Conditions: (b) ELISA Qualified assay, 48 h. Format: cell-based. As for the experimental part:
Representative compounds of the invention were serially and separately diluted 3-fold in DO to obtain a total of eight or twelve concentrations. Then the compounds were added to G401 cell cultured in 384-well plate at 1:500 dilution to obtain the highest concentration of 20 μM. The cells were further cultured for 48 h before ELISA procedure.
ELISA protocol: Cell lysates were transferred to the wells of a 384-well plate and the final volume was adjusted to 50 μL per well with PBS. The plate was sealed, centrifuged at 2,000 rpm for 2 min and incubated at 4° C. for about 16 h. The plate was washed with TBST buffer (1×TBS (10×TBS: 24.2 g Tris (Sigma, T6066), 80 g NaCl (Sigma, S3014) to 1 L of water and adjust pH to 7.6 with HCl) with 0.1% Tween-20). Blocking buffer (TBST, 5% BSA; 50 μL per well) was added and the plate was incubated for 1 h at rt. The blocking buffer was removed and primary antibody was added (30 μL per well). […] The primary antibody was incubated in the plate at rt for 1 h. The wells were washed with TBST and incubated with secondary antibody for 1 h at rt.
After 1 h of incubation at rt, the wells were washed with TBST. […] The signal was read using a PerkinElmer Envision Reader. The H3K27 methylation readouts were normalized using H3 signal and then percentage inhibition was calculated against the samples treated with DO. The data were fit to a dose response curve using the program Helios to get the IC50 values of the test compound.
(In general: ELISA stands for enzyme-linked immunosorbent assay.)

The target of test [2] is wild type PRC2 (wtPRC2) complex (Homo sapiens (Human), UniProt Q15910). Briefly: EZH2 LC-MS assay (LC-Qualified). Conditions: (a) LC-Qualified assay. Type of test: biochemical. As for the experimental part: Representative compounds of the invention were serially and separately diluted 3-fold in DMSO to obtain twelve concentrations. […] Solutions (6 μL) of 80 nM wild type PRC2 (wtPRC2) complex and 60 μM SAM in reaction buffer (20 mM Tris, pH 8.0, 0.1% BSA, 0.01% Triton, 0.5 mM DTT) were added to the wells that were then incubated with the test compound for 20 min. A 6 μL solution of 3 μM of the substrate peptide H3K27me1 (histone H3[21-44]-K27me1-biotin) and 6 μM regulatory peptide H3K27me3 (histone H3[21-44]-K27me3) in reaction buffer was added to initiate each reaction. […] The data were fit to a dose response equation using the program Helios to get the IC50 values of the test compound.

The source of these data is patent US12544374B2, “AZA-quinoline compounds and uses thereof” (Novartis AG, priority 2019, dated 2026).

Chain of wild type PRC2 (wtPRC2) complex (Q15910 whole entry): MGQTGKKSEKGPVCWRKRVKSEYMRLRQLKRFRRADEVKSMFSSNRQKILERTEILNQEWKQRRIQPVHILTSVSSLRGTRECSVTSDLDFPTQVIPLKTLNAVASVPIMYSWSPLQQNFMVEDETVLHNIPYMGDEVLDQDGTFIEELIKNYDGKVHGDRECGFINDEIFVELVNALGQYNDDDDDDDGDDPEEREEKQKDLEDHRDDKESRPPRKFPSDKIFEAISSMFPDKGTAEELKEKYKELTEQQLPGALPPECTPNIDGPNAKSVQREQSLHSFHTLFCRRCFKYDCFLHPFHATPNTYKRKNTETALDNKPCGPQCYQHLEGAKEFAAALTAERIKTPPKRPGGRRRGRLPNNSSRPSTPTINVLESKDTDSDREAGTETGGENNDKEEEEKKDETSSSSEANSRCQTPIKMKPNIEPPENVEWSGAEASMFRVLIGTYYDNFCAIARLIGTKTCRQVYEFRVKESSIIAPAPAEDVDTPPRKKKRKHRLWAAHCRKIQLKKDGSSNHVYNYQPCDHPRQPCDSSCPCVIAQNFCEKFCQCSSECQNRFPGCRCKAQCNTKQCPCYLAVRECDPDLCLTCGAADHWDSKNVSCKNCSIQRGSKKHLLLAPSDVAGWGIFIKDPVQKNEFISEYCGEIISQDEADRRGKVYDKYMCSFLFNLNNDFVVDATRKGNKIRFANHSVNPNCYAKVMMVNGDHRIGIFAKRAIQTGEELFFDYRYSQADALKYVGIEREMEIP
Chain of wild type PRC2 (wtPRC2) complex (Q15022 whole entry partner): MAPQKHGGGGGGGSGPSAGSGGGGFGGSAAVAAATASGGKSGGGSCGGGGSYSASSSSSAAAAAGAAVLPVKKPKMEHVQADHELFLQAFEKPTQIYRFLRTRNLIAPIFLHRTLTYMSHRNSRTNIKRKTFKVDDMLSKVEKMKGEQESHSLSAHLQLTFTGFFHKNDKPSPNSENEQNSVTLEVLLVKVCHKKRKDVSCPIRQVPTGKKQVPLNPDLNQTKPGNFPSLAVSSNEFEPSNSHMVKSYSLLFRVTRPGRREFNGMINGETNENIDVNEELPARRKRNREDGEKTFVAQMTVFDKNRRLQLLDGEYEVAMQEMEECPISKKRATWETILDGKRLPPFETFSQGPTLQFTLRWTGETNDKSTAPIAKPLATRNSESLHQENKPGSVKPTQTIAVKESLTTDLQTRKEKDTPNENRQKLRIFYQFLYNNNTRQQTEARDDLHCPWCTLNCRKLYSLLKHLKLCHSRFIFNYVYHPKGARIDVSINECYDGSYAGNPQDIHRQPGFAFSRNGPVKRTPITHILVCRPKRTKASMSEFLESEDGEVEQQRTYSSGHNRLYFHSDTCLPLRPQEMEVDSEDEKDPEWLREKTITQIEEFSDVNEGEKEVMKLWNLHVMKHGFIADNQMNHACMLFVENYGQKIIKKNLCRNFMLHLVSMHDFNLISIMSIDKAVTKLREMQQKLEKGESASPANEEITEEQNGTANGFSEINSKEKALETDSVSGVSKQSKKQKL
Chain of wild type PRC2 (wtPRC2) complex (O75530 whole entry partner): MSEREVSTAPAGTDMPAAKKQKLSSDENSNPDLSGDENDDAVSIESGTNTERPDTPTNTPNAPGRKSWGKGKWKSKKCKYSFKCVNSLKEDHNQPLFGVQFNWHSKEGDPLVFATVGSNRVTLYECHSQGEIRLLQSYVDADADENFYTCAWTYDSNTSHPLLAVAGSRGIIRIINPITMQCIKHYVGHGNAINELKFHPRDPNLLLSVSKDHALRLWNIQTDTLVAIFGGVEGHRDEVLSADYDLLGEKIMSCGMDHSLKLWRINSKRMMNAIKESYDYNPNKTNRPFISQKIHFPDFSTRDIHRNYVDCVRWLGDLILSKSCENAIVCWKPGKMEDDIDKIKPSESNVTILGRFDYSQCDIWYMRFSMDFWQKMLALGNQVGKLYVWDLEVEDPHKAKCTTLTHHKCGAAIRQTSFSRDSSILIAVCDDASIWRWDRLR
Chain of wild type PRC2 (wtPRC2) complex (Q09028 whole entry partner): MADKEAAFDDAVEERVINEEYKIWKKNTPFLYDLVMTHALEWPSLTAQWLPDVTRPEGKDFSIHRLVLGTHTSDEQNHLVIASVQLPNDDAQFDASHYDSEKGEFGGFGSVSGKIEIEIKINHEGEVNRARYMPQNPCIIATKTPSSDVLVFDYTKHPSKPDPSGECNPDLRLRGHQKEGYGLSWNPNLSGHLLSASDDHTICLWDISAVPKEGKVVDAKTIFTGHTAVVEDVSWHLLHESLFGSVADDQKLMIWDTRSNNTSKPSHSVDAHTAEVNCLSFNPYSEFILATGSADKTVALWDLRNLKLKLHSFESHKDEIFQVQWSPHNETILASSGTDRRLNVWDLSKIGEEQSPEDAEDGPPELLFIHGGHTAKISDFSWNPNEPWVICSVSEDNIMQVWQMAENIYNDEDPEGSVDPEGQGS
Chain of wild type PRC2 (wtPRC2) complex (Q6ZN18 whole entry partner): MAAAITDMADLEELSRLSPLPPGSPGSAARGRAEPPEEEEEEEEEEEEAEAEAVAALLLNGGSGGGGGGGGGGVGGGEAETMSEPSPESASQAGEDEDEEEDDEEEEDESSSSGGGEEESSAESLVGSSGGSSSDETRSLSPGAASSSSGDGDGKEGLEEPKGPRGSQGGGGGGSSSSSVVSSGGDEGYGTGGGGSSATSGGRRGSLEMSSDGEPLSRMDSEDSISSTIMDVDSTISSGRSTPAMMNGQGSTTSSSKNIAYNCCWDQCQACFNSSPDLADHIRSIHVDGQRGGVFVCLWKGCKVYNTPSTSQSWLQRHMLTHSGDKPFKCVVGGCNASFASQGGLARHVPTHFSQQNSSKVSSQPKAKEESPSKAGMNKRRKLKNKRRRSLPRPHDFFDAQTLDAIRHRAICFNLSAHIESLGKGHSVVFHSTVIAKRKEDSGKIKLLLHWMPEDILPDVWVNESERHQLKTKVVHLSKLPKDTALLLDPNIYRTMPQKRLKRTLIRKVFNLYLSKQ
Chain of EZH2 (Q15910 whole entry): as the sequence (Q15910 whole entry) above
Chain of EZH2 (Q15022 whole entry partner): as the sequence (Q15022 whole entry partner) above
Chain of EZH2 (O75530 whole entry partner): as the sequence (O75530 whole entry partner) above
Chain of EZH2 (Q09028 whole entry partner): as the sequence (Q09028 whole entry partner) above

Take `O=C(Nc1cnc(NC[C@H]2CC[C@H](Nc3ccc4ccnc(Cl)c4n3)CC2)nc1)OCCO` [Compound C17, 2-hydroxyethyl (2-((((1,4-trans)-4-((8-chloro-1,7-naphthyridin-2-yl)amino)cyclohexyl)methyl)amino)pyrimidin-5-yl)carbamate]: the half-inhibitory concentration (IC50) (commonly the concentration at which inhibition is half-maximal) in test [1] was determined as 0.01 µM; in test [2] it was 0.088 µM.
For `O=C(NCc1cnc(NC[C@H]2CC[C@H](Nc3ccc4ccnc(Cl)c4n3)CC2)nc1)C1COC1` [Compound C59, N-((2-((((1,4-trans)-4-((8-chloro-1,7-naphthyridin-2-yl)amino)cyclohexyl)methyl)amino)pyrimidin-5-yl)methyl)oxetane-3-carboxamide], the IC50 came out at 0.033 µM in test [1] and 0.045 µM in test [2].
As to `COc1nccc2ccc(N[C@H]3CC[C@H](CNc4ncc(-c5ncn[nH]5)cn4)CC3)nc12` [Compound C12, N-((1,4-trans)-4-(((5-(1H-1,2,4-triazol-5-yl)pyrimidin-2-yl)amino)methyl)cyclohexyl)-8-methoxy-1,7-naphthyridin-2-amine], the half-inhibitory concentration (IC50) is 0.052 µM in test [1] and 0.075 µM in test [2].
In the same order, the values of `O=C(NCc1cnc(NC[C@H]2CC[C@H](Nc3ccc4ccnc(Cl)c4n3)CC2)nc1)C1CCN1` (stereo partly drawn) [Compound C58, N-((2-((((1,4-trans)-4-((8-chloro-1,7-naphthyridin-2-yl)amino)cyclohexyl)methyl)amino)pyrimidin-5-yl)methyl)azetidine-2-carboxamide] are 0.117 µM and 0.038 µM.
The matching figures for `CNc1nccc2ccc(N[C@H]3CC[C@H](CNc4ncc(NC(C)=O)cn4)CC3)nc12` [Compound C63, N-(2-((((1,4-trans)-4-((8-(methylamino)-1,7-naphthyridin-2-yl)amino)cyclohexyl)methyl)amino)pyrimidin-5-yl)acetamide]: 0.037 µM and 0.096 µM.
The matching figures for `OCCc1cnc(NC[C@H]2CC[C@H](Nc3ccc4ccnc(Cl)c4n3)CC2)nc1` [Compound C46, 2-(2-((((1,4-trans)-4-((8-chloro-1,7-naphthyridin-2-yl)amino)cyclohexyl)methyl)amino)pyrimidin-5-yl)ethan-1-ol]: 0.013 µM and 0.012 µM.
In the case of `COC(=O)N(C)c1cnc(NC[C@H]2CC[C@H](Nc3ccc4ccnc(Cl)c4n3)CC2)nc1` [Compound C65, Methyl (2-((((1,4-trans)-4-((8-chloro-1,7-naphthyridin-2-yl)amino)cyclohexyl)methyl)amino)pyrimidin-5-yl)(methyl)carbamate], the IC50 was 0.065 µM in test [1] and 0.059 µM in test [2].
The matching figures for `OC1CC(NCc2cnc(NC[C@H]3CC[C@H](Nc4ccc5ccnc(Cl)c5n4)CC3)nc2)C1` (stereo partly drawn) [Compound C33, 3-(((2-((((1,4-trans)-4-((8-chloro-1,7-naphthyridin-2-yl)amino)cyclohexyl)methyl)amino)pyrimidin-5-yl)methyl)amino)cyclobutan-1-ol]: 0.044 µM and 0.042 µM.
In the same order, the values of `O=C(NC1COC1)C(CO)c1cnc(NC[C@H]2CC[C@H](Nc3ccc4ccnc(Cl)c4n3)CC2)nc1` (stereo partly drawn) [Compound C72, 2-(2-((((1,4-trans)-4-((8-chloro-1,7-naphthyridin-2-yl)amino)cyclohexyl)methyl)amino)pyrimidin-5-yl)-3-hydroxy-N-(oxetan-3-yl)propanamide] are 0.056 µM and 0.049 µM.
`CNc1nccc2ccc(N[C@H]3CC[C@H](CNc4ncc(C#N)cn4)CC3)nc12` [Compound C60, 2-((((1,4-trans)-4-((8-(methylamino)-1,7-naphthyridin-2-yl)amino)cyclohexyl)methyl)amino)pyrimidine-5-carbonitrile]: the IC50 in test [1] worked out at 0.021 µM; in test [2] it was 0.022 µM.
Take `Clc1nccc2ccc(N[C@H]3CC[C@H](CNc4ncc(CNCC5COC5)cn4)CC3)nc12` [Compound C31, 8-chloro-N-((1,4-trans)-4-(((5-(((oxetan-3-ylmethyl)amino)methyl)pyrimidin-2-yl)amino)methyl)cyclohexyl)-1,7-naphthyridin-2-amine]: the values for the half-inhibitory concentration (IC50) in test [1] and in test [2] were 0.06 µM and 0.026 µM, respectively.
The matching figures for `O=S1(=O)CCN(Cc2cnc(NC[C@H]3CC[C@H](Nc4ccc5ccnc(Cl)c5n4)CC3)nc2)CC1` [Compound C30, 4-((2-((((1,4-trans)-4-((8-chloro-1,7-naphthyridin-2-yl)amino)cyclohexyl)methyl)amino)pyrimidin-5-yl)methyl)thiomorpholine 1,1-dioxide]: 0.007 µM and 0.017 µM.
For `N#Cc1cnc(NC[C@H]2CC[C@H](Nc3ccc4ccnc(Cl)c4n3)CC2)nc1` [Compound C21, 2-((((1,4-trans)-4-((8-chloro-1,7-naphthyridin-2-yl)amino)cyclohexyl)methyl)amino)pyrimidine-5-carbonitrile], the IC50 in test [1] and in test [2] was 0.04 µM throughout.
`CN(C)C1CCN(C(=O)Cc2cnc(NC[C@H]3CC[C@H](Nc4ccc5ccnc(Cl)c5n4)CC3)nc2)C1` (stereo partly drawn) [Compound C39, 2-(2-((((1,4-trans)-4-((8-chloro-1,7-naphthyridin-2-yl)amino)cyclohexyl)methyl)amino)pyrimidin-5-yl)-1-(3-(dimethylamino)pyrrolidin-1-yl)ethan-1-one]: the concentration for half-maximal inhibition (IC50) in test [1] is 0.02 µM; in test [2], 0.081 µM.
For the compound `CC(CO)Oc1cnc(NC[C@H]2CC[C@H](Nc3ccc4ccnc(Cl)c4n3)CC2)nc1` (stereo partly drawn) [Compound C68, 2-((2-((((1,4-trans)-4-((8-chloro-1,7-naphthyridin-2-yl)amino)cyclohexyl)methyl)amino)pyrimidin-5-yl)oxy)propan-1-ol], the 50% inhibitory concentration (IC50) in test [1] amounted to 0.018 µM; in test [2], 0.049 µM.
As for `COc1nccc2ccc(N[C@H]3CC[C@H](CNc4ncc(C#N)cn4)CC3)nc12` [Compound C4, 2-((((1,4-trans)-4-((8-methoxy-1,7-naphthyridin-2-yl)amino)cyclohexyl)methyl)amino)pyrimidine-5-carbonitrile], the half-maximal inhibitory concentration (IC50) in test [1] was determined as 0.031 µM; in test [2] it was 0.046 µM.
For `O=C(Cc1cnc(NC[C@H]2CC[C@H](Nc3ccc4ccnc(Cl)c4n3)CC2)nc1)NC1CCC1` [Compound C44, 2-(2-((((1,4-trans)-4-((8-chloro-1,7-naphthyridin-2-yl)amino)cyclohexyl)methyl)amino)pyrimidin-5-yl)-N-cyclobutylacetamide], the results for the IC50 in test [1] and in test [2] were 0.163 µM and 0.054 µM, respectively.
For the compound `O=C(Cc1cnc(NC[C@H]2CC[C@H](Nc3ccc4ccnc(Cl)c4n3)CC2)nc1)N1CCN(CCO)CC1` [Compound C40, 2-(2-((((1,4-trans)-4-((8-chloro-1,7-naphthyridin-2-yl)amino)cyclohexyl)methyl)amino)pyrimidin-5-yl)-1-(4-(2-hydroxyethyl)piperazin-1-yl)ethan-1-one], the results for the concentration for half-maximal inhibition (IC50) in test [1] and in test [2] were 0.028 µM and 0.046 µM, respectively.
With `O=C(NC1COC1)c1cnc(NC[C@H]2CC[C@H](Nc3ccc4ccnc(Cl)c4n3)CC2)nc1` [Compound C25, 2-((((1,4-trans)-4-((8-chloro-1,7-naphthyridin-2-yl)amino)cyclohexyl)methyl)amino)-N-(oxetan-3-yl)pyrimidine-5-carboxamide], the IC50 in test [1] is 0.285 µM; in test [2], 0.023 µM.
For the compound “2-methoxyethyl (2-((((1,4-trans)-4-((8-chloro-1,7-naphthyridin-2-yl)amino)cyclohexyl)methyl)amino)pyrimidin-5-yl)carbamate [Compound C16]”, the figures for the 50% inhibitory concentration (IC50) in test [1] and in test [2] were 0.027 µM and 0.015 µM, respectively.
In the same order, the values of `COc1nccc2ccc(N[C@H]3CC[C@H](CNc4ncc(CC(=O)NC5COC5)cn4)CC3)nc12` [Compound C13, 2-(2-((((1,4-trans)-4-((8-methoxy-1,7-naphthyridin-2-yl)amino)cyclohexyl)methyl)amino)pyrimidin-5-yl)-N-(oxetan-3-yl)acetamide] are 0.013 µM and 0.042 µM.
On to `Clc1nccc2ccc(NC3CCC(CNc4ncc(COC5COC5)cn4)CC3)nc12` (stereo not drawn) [Compound C35, 8-chloro-N-((1,4-trans)-4-(((5-((oxetan-3-yloxy)methyl)pyrimidin-2-yl)amino)methyl)cyclohexyl)-1,7-naphthyridin-2-amine], for which inhibition in test [1] was half-maximal at 0.024 µM (IC50).
As for `O=C(CO)Nc1cnc(NC[C@H]2CC[C@H](Nc3ccc4ccnc(Cl)c4n3)CC2)nc1` [Compound C19, N-(2-((((1,4-trans)-4-((8-chloro-1,7-naphthyridin-2-yl)amino)cyclohexyl)methyl)amino)pyrimidin-5-yl)-2-hydroxyacetamide], in test [1], the half-maximal inhibitory concentration (IC50) was 0.069 µM.
